# Test system: Lactobacillus (L. buchneri and L. para paracasei)
# Assay: Challenge screening of liquid enzyme formulations inoculated with Lactobacillus, viable cells (CFU)
# Assay type: cell-based
# Settings: for CFU/ml After 1 week / CFU/ml After 2 weeks: 20-25° C.
# Description: The antimicrobial effect may be determined by analyzing viable cells (CFU) of the liquid formulation after inoculating with Lactobacillus and incubating for 1-2 weeks at 20-25° C. and comparing with a similar liquid composition without the fatty acid or salt.
# Challenge screening was performed by inoculating with 10^5-10^6 CFU/ml of Lactobacillus (L. buchneri and L. para paracasei), incubating for two weeks at 20-25° C., and analyzing viable cells (CFU) before and after inoculation and after 1 and 2 weeks.
# The results are shown as CFU/ml (detection limit 100): […]
# [1] = Example 5: 0.3% w/w inhibitor in glucoamylase formulation, pH 4.7
# [2] = Example 5: glucoamylase (mixture of two variants) formulation, 48% w/w solids, pH 4.7, 0.3% w/w Na-octanoate or sodium benzoate instead, with or without 0.3% Na acetate trihydrate
# [3] = Example 5: glucoamylase formulation, pH 4.7, 0.3% w/w Na-octanoate or sodium benzoate instead, with or without 0.3% Na acetate trihydrate
# [4] = Example 1: Talaromyces glucoamylase formulation, 0.5% w/w Na-hexanoate, pH 5.0, detection limit 100
Structure (SMILES),antimicrobial effect against Lactobacillus (in words) [1],CFU/ml Before inoculation [2],CFU/ml After inoculation [3],CFU/ml After 1 week [3],CFU/ml After 2 weeks [3],"antimicrobial effect against Lactobacillus (in words) (Example 4: 0.5% w/w Na-octanoate in glucoamylase formulation, pH 5.0, compared with formate+sorbate+propionate)","antimicrobial effect against Lactobacillus (in words) (Example 1: 0.5% w/w Na-hexanoate in glucoamylase formulation, pH 5.0)",CFU/ml After 1 week [4],CFU/ml After 2 weeks [4],"CFU/ml After inoculation (Example 1: Talaromyces glucoamylase formulation, 0.5% w/w Na-hexanoate, pH 5.0, inoculated with 10^5-10^6 CFU/ml)","CFU/ml Before inoculation (Example 1: Talaromyces glucoamylase formulation, 43% w/w solids (glucose), 0.5% w/w Na-hexanoate, pH 5.0, detection limit 100)","antimicrobial effect against Lactobacillus (in words) (Example 2: 0.5% w/w Na-hexanoate in xylanase and cellulase formulation, pH 4.6)","antimicrobial effect against Lactobacillus (in words) (Example 3: 0.5% w/w Na-hexanoate in cellulase and xylanase formulation, pH 4.55)"
"O=C([O-])c1ccccc1.[Na+] [Benzoate, sodium benzoate, reference compound]",not effective,≦100 CFU/ml,170000 CFU/ml,150000 CFU/ml,120000 CFU/ml,–,–,–,–,–,–,–,–
"CC(=O)[O-].O.O.O.[Na+] [acetate, Na acetate trihydrate, reference compound]",not effective,–,–,–,–,–,–,–,–,–,–,–,–
"CCCCCCCC(=O)[O-].[Na+] [Octanoate, Na-Caprylate (Na-octanoate)]",strong antimicrobial (germicidal) effect,≦100 CFU/ml,170000 CFU/ml,≦100 CFU/ml,≦100 CFU/ml,strong antimicrobial (germicidal) effect,–,–,–,–,–,–,–
CCCCCC(=O)[O-].[Na+] [Na-hexanoate],–,–,–,–,–,–,antimicrobial (germicidal) effect,≦100 CFU/ml,≦100 CFU/ml,180000 CFU/ml,≦100 CFU/ml,antimicrobial (germicidal) effect,antimicrobial (germicidal) effect
